Results from patent US10857105B2, “Compounds and compositions for intracellular delivery of therapeutic agents” (ModernaTX, Inc., priority 2017, dated 2020).

Assays:
[1] = Particle size and polydispersity index of nanoparticle compositions (Zetasizer Nano ZS); format: physicochemical
Experimental: A Zetasizer Nano ZS (Malvern Instruments Ltd, Malvern, Worcestershire, UK) can be used to determine the particle size, the polydispersity index (PDI) and the zeta potential of the nanoparticle compositions in 1×PBS in determining particle size and 15 mM PBS in determining zeta potential.
Initial studies were performed to compare the delivery efficiency of nanoparticle compositions including various compounds according to Formula (I), (IA), (IB), (II), (IIa), (IIb), (IIc), (IId), (IIe), (IIf), (IIg), or (III). The cationic lipid MC3 is a current standard in the art. Accordingly, the standard MC3 formulation including about 50 mol % MC3, about 10 mol % DSPC, about 38.5 mol % cholesterol, and about 1.5 mol % PEG-DMG was used as a basis for this study. Nanoparticle compositions including DSPC as a phospholipid, cholesterol as a structural lipid, PEG-DMG as a PEG lipid, an RNA, and a compound according to Formula (I), (IA), (IB), (II), (IIa), (IIb), (IIc), (IId), (IIe), (IIf), (IIg), or (III) selected from Compounds 1-159, 168-170, and 173-175 were prepared according to or via methods similar to those described in Examples 1 and 2. The ratios of the lipids were 50:10:38.5:1.5 mol % for the lipid according to Formula (I), (IA), (IB), (II), (IIa), (IIb), (IIc), (IId), (IIe), (IIf), (IIg), or (III):DSPC:cholesterol:PEG-DMG. The RNA used was an mRNA encoding luciferase (Luc) or hEPO, wherein each uridine was replaced N1-methyl pseudouridine. Tables 1A-1E summarize the content and characteristics of the formulations.

modified luciferase = experiment: Luciferase expression in liver, lung, spleen and femur 6 hours after intravenous administration to mice; format: in vivo; details: 6 hours after intravenous 0.5 mpk, mice
Experimental: The efficacy of the nanoparticle compositions presented in Table 1A was further evaluated by measuring the expression of modified luciferase in the liver, lung, spleen, and femur upon administration of a given composition. Formulations were administered intravenously to mice (n=3) at a dosage of 0.5 mpk and bioluminescence measured after 6 hours. The standard MC3 formulation and a PBS control were also tested. […] Flux in the liver was lowest for compositions including Compounds 58, 59, 137, and 141. Flux in the spleen was highest for compositions including Compounds 4, 7, 33, 34, 48, 53, 108, 129, 130, and 148, and lowest for compositions including Compounds 9, 59, 124, and 141.

[2] = Table 1A, lipid:DSPC:cholesterol:PEG-DMG 50:10:38.5:1.5 mol %

Row | Structure (SMILES) | Size [1, 2] [nm] | Total Flux, Liver (modified luciferase) | Total Flux, Lung (modified luciferase) | Total Flux, Spleen (modified luciferase) | Size ([1]; Table 1C, compositions for subcutaneous administration) [nm] | Size ([1]; Table 1D, compositions for subcutaneous administration, # formulated with hEPO mRNA) [nm]
1 | CCCCCCCCC(CCCCCCCC)OC(=O)CCCCCCCN(CCO)CCCC(=O)OCC1CC1CCCCCC (stereo not drawn) [Compound 55, heptadecan-9-yl 8-((4-((2-hexylcyclopropyl)methoxy)-4-oxobutyl)(2-hydroxyethyl)amino)octanoate] | 91.6 | 1.92E+09 | 7.02E+06 | 2.63E+07 | – | –
2 | CCCCCCCCC(CCCCCCCC)OC(=O)CCCCCCCN(CCO)CCCCCCCC(=O)OC(CCCCCCCC)C1CC1 (stereo not drawn) [Compound 65, 1-Cyclopropylnonyl 8-((8-(heptadecan-9-yloxy)-8-oxooctyl)(2-hydroxyethyl)amino)octanoate] | 63.9 | 9.56E+09 | 3.79E+07 | 6.57E+07 | – | –
3 | CCCCCCCCC(CCCCCCCC)OC(=O)CCCCCCCN(CCO)CCCC(=O)OC1CCC(CCCCC)CC1 (stereo not drawn) [Compound 67, Heptadecan-9-yl 8-((2-hydroxyethyl)(4-oxo-4-((4-pentylcyclohexyl)oxy)butyl)amino)octanoate] | 77 | 3.60E+09 | 1.68E+07 | 2.55E+07 | – | –
4 | CCCCCCCCC(CCCCCCCC)OC(=O)CCCCCCCN(CCO)CCCCCC(=O)OC1CCC(CCCCC)CC1 (stereo not drawn) [Compound 68, Heptadecan-9-yl 8-((2-hydroxyethyl)(6-oxo-6-((4-pentylcyclohexyl)oxy)hexyl)amino)octanoate] | 76.8 | 8.42E+09 | 3.98E+07 | 6.69E+07 | – | –
5 | CCCCCCCCC(C)OC(=O)CCCN(CCO)CCCCCCCC(=O)OC(CCCCCCCC)CCCCCCCC (stereo not drawn) [Compound 70, Heptadecan-9-yl 8-((4-(decan-2-yloxy)-4-oxobutyl)(2-hydroxyethyl)amino)octanoate] | 73.7 | 8.55E+08 | 6.32E+06 | 2.06E+06 | – | –
6 | CCCCCCCCC(CC)OC(=O)CCCN(CCO)CCCCCCCC(=O)OC(CCCCCCCC)CCCCCCCC (stereo not drawn) [Compound 72, Heptadecan-9-yl 8-((2-hydroxyethyl)(4-oxo-4-(undecan-3-yloxy)butyl)amino)octanoate] | 76.8 | 7.97E+08 | 1.05E+07 | 6.40E+06 | 77.3 | –
7 | CCCCCCCCCOC(=O)CCCCCCCN(CCCCCCCC(=O)OC(CCCCCCCC)CCCCCCCC)CCCn1ccc(N)nc1=O [Compound 115, Heptadecan-9-yl 8-((3-(4-amino-2-oxopyrimidin-1(2H)-yl)propyl)(8-(nonyloxy)-8-oxooctyl)amino)octanoate] | 64.5 | – | – | – | – | –
8 | CCCCCCCCCOC(=O)CCCCCCCN(CCCCCCCC(=O)OC(CCCCCCCC)CCCCCCCC)CCCn1cnc2c(N)ncnc21 [Compound 116, Heptadecan-9-yl 8-((3-(6-amino-9H-purin-9-yl)propyl)(8-(nonyloxy)-8-oxooctyl)amino)octanoate] | 63.3 | – | – | – | – | –
9 | CCCCCCCCCOC(=O)CCCCCCCN(CCO)CCCCCCCC(=O)Oc1ccc(CCCCC)cc1 [Compound 119, Nonyl 8-((2-hydroxyethyl)(8-oxo-8-(4-pentylphenoxy)octyl)amino)octanoate] | 60.8 | – | – | – | – | –
10 | CCCCCCCCCOC(=O)CCCCCCCN(CCCCCCCC(=O)OC(CCCCCCCC)CCCCCCCC)CCCN1C(=O)CNC1=O [Compound 174, Heptadecan-9-yl 8-((3-(2,5-dioxoimidazolidin-1-yl)propyl)(8-(nonyloxy)-8-oxooctyl)amino)octanoate] | 84.4 | – | – | – | – | –
11 | CCCCCCCCCOC(=O)CCCCCCCN(CCCCCCCC(=O)OC(CCCCCCCC)CCCCCCCC)CCCNC(=N)N [Compound 207, Heptadecan-9-yl 8-((3-guanidinopropyl)(8-(nonyloxy)-8-oxooctyl)amino)octanoate] | – | – | – | – | – | 81.4
